The values that follow come from patent US20210015793A1, “COMPOUNDS FOR TREATING CNS- AND NEURODEGENERATIVE DISEASES” (ETH ZURICH, priority 2018, published 2021).

Data set [1] can be described thus: Serum concentration by HPLC in dogs after oral dosing. The class given is in vivo, dog. As to conditions: for steady-state serum concentrations of Compound-1 and Compound-1F compared: 28 days once daily oral dosing, 24 h after the last dose; for oral bioavailability: oral treatment; for dog dose roughly equivalent to 8 mg/kg/day in mice (by steady-state serum concentration): mice given compound in drinking water, dogs 28 days once daily oral dosing. The method, then:
Dog serum concentrations of Compound-1, Compound-1F and Compound-4 were determined with serum isolated from the blood of German shepherd dogs (age: 8-9 months) taken at different time points (2 h, 4 h, 6 h, 8, 10 h, 24 h) after oral drug intake. The steady-state serum concentrations of Compound-1, Compound-1F and Compound-4 were determined in mice with blood isolated at the end of the study by cardiac puncture. Serum proteins were removed by acetonitrile precipitation, and compounds were extracted by chloroform before separation on an HPLC-C18 column (Poroshell 120 EC-C18, Agilent) with an HPLC system (Agilent 1100 Series) and detection at OD 280 nm, for Compound-1 and Compound-1F. Detection of Compound-4 was performed at OD 310 nm. The same extraction method was also used to determine Compound-1F in the serum of healthy human research participants. Dog hematology and biochemical parameters were determined by the Center of Applied Analytical and Veterinary Studies, Cairo, Egypt. ECG and blood pressure were measured by Dr. Mohamed Elsaed, Electrocardiography Unit, Faculty of Veterinary Medicine, Cairo University. The study was approved by the ethical committee of the Center of Applied and Veterinary Studies, Cairo, Egypt. Clinical laboratory parameters of human research participants were determined by the Rabaa El Adaweya Medical Central Hospital, Cairo, Egypt.

The subject of another data set is Tg2576 AD mice. Briefly: Hippocampal hyperphosphorylated PHF tau by direct binding assay with [125I]-labeled AT8 antibody, Tg2576 mice subjected to CUMS. The class given is in vivo, mouse. Conditions: 15-month-old Tg2576 mice, 3 months of CUMS with treatment, vs untreated stressed controls. From the text:
For a genetic model of familial AD (FAD), Tg2576 mice (Taconic Biosciences, Rensselaer, N.Y., USA) were used with neuron-specific overexpression of human APPSwe, i.e the Swedish mutation of APP695 isolated from a Swedish family with FAD featuring the double mutation K670N/M671L (Hsiao et al., Science 274, 99-103 (1996)). As a genetic model of tauopathy, the Tg-TauP301L mice (Model 2508, Taconic Biosciences, Rensselaer, N.Y., USA) with neuron-specific expression of the most common FTDP-17 (frontotemporal dementia and parkinsonism linked to chromosome 17) mutation (Lewis et al., Nature Genetics 25, 402-405 (2000)) were used. […]
Neuronal cell loss and hyperphosphorylated PHF Tau were determined in hippocampi of 15 months-old Tg2576 mice, which were treated without or with Compound-1 and Compound-4 for three months during the neurodegeneration-enhancing CUMS (chronic unpredictable mild stress) protocol. Neuronal cell loss was determined with crude homogenates of dissected hippocampi by direct binding assay with the neuron-specific [125]-labeled anti-NeuN antibody (MAB377, clone A60, EMD Millipore, Merck KGaA, Darmstadt, Germany). Similarly, the neuronal cell loss-causing PHF tau hyperphosphorylation was quantified with [125]-labeled AT8 antibody. […]

Setting [2] is: dogs, oral gavage, single dose of 60 mg.

Entries after “also recorded” stand apart in the source; their conditions may differ.

For the compound `O=C(C1=C(O)C(c2ccccc2)N(c2ccc3c(c2)OCO3)C1=O)C1CC1` (centres unmarked) [Compound-1, 1-(1,3-benzodioxol-5-yl)-4-(cyclopropane-carbonyl)-3-hydroxy-2-phenyl-2H-pyrrol-5-one], in data set [1] (dogs), the “steady-state serum concentrations of Compound-1 and Compound-1F compared” value is on record as “comparable”; the oral bioavailability entry is “good oral bioavailability”. In addition, the “dose dependence of peak serum concentration” value in data set [1] (dogs, 28 days repeated once daily dosing, 20, 60, 200 mg/day) is on record as “dose-dependent increase in the peak serum concentration”. Moreover, the “time to peak serum concentration” value in data set [1] (dogs, day 28 of repeated once daily dosing, 20, 60 and 200 mg/day) came to 4 h. In data set [1] (setting [2]), the peak serum concentration amounted to 2 µg/mL and the “time to peak serum concentration” value is on record as 4 h. In data set [1] (dogs, oral gavage, single dose of 200 mg), the “time to peak serum concentration” value is 6 h. Further, the “dog dose roughly equivalent to 8 mg/kg/day in mice (by steady-state serum concentration)” value in data set [1] is about 0.7 mg/kg day. The “hippocampal content of hyperphosphorylated PHF Tau (AT8 binding)” value with Tg2576 AD mice is “retarded; also recorded: significantly decreased hippocampal content of hyperphosphorylated PHF Tau”.
`O=C(C1=C(O)C(c2ccc(F)cc2)N(c2ccc3c(c2)OCO3)C1=O)C1CC1` (centres unmarked) [Compound-1F, 1-(1,3-Benzodioxol-5-yl)-4-(cyclopropanecarbonyl)-2-(4-fluorophenyl)-3-hydroxy-2H-pyrrol-5-one]: in data set [1] (dogs), the “steady-state serum concentrations of Compound-1 and Compound-1F compared” value is given as “comparable”; the oral bioavailability result is recorded as “good oral bioavailability”. Further, the “pharmacokinetic profile compared to Compound-1” value in data set [1] (dogs, oral) is on record as “slower on-rate”. Also, in data set [1], the “dog dose roughly equivalent to 8 mg/kg/day in mice (by steady-state serum concentration)” value was about 0.7 mg/kg day. The “hippocampal content of hyperphosphorylated PHF Tau (AT8 binding)” value in the data set with Tg2576 AD mice was “retarded”.
